Assays:
CDK1/Cyclin B = biological target: T1, CDK1/Cyclin B (Homo sapiens, UniProt P06493); test: Enzymatic assay for CDK1 (LANCE Ultra kinase assay, FRET based); format: biochemical; conditions: ATP at Km; read-out: CDK1 enzymatic activity IC50
T1 construct: purchased Invitrogen PR4768C
Summary of the method: (§1)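 Purified CDK–cyclin enzyme, ATP at Km; ULight peptide substrate; TR-FRET via Eu anti-phospho-Ab; inhibition scored.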

CDK2/Cyclin A = biological target: T2, CDK2/Cyclin A (Homo sapiens, UniProt P24941); test: Enzymatic assay for CDK2 (LANCE Ultra kinase assay, FRET based); format: biochemical; conditions: ATP at Km
T2 construct: purchased Invitrogen PV6290
Summary of the method: (§2)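 Compounds tested as 8 doses in 4-fold steps against CDK2/Cyclin A ([…]) or CDK5/p25 ([…]), with ATP at its Km and 68 nM ULight-MBP substrate. After 60 min at 23° C., EDTA plus Eu-labelled anti-phospho-MBP added; TR-FRET (615/665 nm) read after another 60 min.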

CDK5/p25 = biological target: T3, CDK5/p25 (Homo sapiens, UniProt Q00535); test: Enzymatic assay for CDK5 (LANCE Ultra kinase assay, FRET based); format: biochemical; conditions: ATP at Km
T3 construct: purchased Invitrogen PR8543B
T3 sequence (Q00535 whole entry): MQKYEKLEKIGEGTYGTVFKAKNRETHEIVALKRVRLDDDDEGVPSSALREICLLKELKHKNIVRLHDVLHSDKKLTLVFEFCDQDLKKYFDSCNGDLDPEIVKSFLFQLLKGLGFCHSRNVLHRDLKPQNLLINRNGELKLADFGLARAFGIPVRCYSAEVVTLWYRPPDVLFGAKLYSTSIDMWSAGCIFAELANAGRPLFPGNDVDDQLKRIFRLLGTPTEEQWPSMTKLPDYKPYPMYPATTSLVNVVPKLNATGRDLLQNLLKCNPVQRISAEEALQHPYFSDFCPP
T3 sequence (Q15078 99-307 partner limits assumed): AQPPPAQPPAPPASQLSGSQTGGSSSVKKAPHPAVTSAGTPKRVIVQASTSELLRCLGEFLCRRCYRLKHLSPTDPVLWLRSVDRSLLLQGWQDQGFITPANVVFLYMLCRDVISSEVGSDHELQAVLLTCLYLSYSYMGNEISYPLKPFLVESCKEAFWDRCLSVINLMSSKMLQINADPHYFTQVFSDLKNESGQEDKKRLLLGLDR
Summary of the method: as §2

CDK7/Cyclin H/MNAT1 = biological target: T4, CDK7/Cyclin H/MNAT1 (Homo sapiens, UniProt P50613); test: Enzymatic assay for CDK7 (LANCE Ultra kinase assay, FRET based); format: biochemical; conditions: for IC50: ATP at Km
T4 construct: purchased Invitrogen PR6749B
T4 sequence (P50613 whole entry): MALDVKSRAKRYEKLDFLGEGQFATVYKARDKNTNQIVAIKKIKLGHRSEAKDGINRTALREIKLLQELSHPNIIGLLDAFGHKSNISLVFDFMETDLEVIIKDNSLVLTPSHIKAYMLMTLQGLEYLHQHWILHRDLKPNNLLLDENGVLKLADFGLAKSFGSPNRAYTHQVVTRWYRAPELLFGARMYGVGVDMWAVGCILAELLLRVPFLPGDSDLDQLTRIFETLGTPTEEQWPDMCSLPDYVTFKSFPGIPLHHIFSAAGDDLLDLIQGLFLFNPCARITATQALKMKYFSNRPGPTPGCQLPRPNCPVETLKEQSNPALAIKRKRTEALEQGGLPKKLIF
T4 sequence (P51946 whole entry partner): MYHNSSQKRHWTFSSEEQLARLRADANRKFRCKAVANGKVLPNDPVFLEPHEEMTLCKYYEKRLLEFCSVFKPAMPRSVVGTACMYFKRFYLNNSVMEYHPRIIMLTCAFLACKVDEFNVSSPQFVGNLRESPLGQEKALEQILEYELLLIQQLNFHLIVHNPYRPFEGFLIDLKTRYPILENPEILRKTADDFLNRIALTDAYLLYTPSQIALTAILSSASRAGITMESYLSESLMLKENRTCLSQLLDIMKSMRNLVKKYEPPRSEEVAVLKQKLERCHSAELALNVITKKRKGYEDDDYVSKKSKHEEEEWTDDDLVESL
T4 sequence (P51948 whole entry partner): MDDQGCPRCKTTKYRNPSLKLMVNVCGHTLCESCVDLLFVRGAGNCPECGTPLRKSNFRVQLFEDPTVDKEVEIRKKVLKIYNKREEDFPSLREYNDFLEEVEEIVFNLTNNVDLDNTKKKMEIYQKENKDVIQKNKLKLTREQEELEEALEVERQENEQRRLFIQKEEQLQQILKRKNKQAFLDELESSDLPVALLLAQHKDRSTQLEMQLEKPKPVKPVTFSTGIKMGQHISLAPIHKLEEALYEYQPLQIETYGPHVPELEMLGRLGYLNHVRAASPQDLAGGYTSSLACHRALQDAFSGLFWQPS
Summary of the method: as §1

A2780 = A2780 viability assay (CellTiter-Glo, 72 hours); format: cell-based; conditions: Homo sapiens; A2780 cells
Summary of the method: (§3)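 RPMI-1640/10% FBS; plate cells (MV4-11 1×10^4, OVCAR-3 5×10^3, A2780 1×10^3 per well); 24 h later add compound 0.0015–10 uM; 72 h, 37° C; CellTiter-Glo luminescence, duplicate wells.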

OVCAR-3 = OVCAR-3 viability assay (CellTiter-Glo, 72 hours); format: cell-based; conditions: Homo sapiens; OVCAR-3 cells
Summary of the method: as §3

T1 sequence (P06493 whole entry): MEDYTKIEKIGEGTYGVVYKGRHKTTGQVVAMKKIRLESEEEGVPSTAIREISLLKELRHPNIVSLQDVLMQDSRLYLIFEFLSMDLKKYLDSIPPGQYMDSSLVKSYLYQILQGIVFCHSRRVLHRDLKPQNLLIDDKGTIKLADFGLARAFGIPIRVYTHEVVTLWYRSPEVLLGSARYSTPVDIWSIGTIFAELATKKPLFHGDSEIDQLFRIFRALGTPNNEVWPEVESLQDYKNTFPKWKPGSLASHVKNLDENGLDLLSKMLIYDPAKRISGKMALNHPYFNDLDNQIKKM
T1 sequence (P14635 whole entry partner): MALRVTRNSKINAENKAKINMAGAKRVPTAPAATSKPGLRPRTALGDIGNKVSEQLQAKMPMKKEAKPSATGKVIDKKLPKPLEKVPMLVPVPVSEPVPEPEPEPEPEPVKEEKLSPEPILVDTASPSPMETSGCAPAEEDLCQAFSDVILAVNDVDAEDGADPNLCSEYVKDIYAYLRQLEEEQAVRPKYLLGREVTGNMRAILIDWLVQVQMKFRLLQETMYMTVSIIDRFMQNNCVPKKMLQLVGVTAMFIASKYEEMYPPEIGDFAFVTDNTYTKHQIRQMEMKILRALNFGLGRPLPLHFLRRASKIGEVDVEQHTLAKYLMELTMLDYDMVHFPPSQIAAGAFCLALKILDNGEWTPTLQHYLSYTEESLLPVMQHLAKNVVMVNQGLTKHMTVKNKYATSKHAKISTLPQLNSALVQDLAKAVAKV

| Structure (SMILES) | IC50 (CDK1/Cyclin B) | IC50 (CDK2/Cyclin A) | IC50 (CDK5/p25) | IC50 (CDK7/Cyclin H/MNAT1) | CDK1/CDK7: Selectivity of CDK7 inhibition over CDK1 inhibition (CDK7/Cyclin H/MNAT1) | CDK2/CDK7: Selectivity of CDK7 inhibition over CDK2 inhibition (CDK7/Cyclin H/MNAT1) | CDK5/CDK7: Selectivity of CDK7 inhibition over CDK5 inhibition (CDK7/Cyclin H/MNAT1) | IC50 (A2780) | IC50 (OVCAR-3) |
| --- | --- | --- | --- | --- | --- | --- | --- | --- | --- |
| C=C(F)C(=O)Nc1ccc2c(-c3ccccc3CNc3nc(NC4CCC(OC)CC4)nc4c(C(C)C)cnn34)nccc2c1 (stereo not drawn) [Compound 84] | > 1000 nM | > 1000 nM | > 1000 nM | 100 to 1000 nM | B (B indicates 50 < [fold] ≤ 500) | B (B indicates 50 < [fold] ≤ 500) | B (B indicates 50 < [fold] ≤ 500) | < 1000 nM | < 1000 nM |
| C=C(F)C(=O)Nc1ccc2c(-c3ccccc3CNc3nc(N4CCC(OCC)CC4)nc4c(C(C)C)cnn34)nccc2c1 [Compound 85] | > 1000 nM | > 1000 nM | > 1000 nM | 100 to 1000 nM | B (B indicates 50 < [fold] ≤ 500) | B (B indicates 50 < [fold] ≤ 500) | B (B indicates 50 < [fold] ≤ 500) | < 1000 nM | < 1000 nM |
| C=C(F)C(=O)Nc1ccc2c(-c3ccccc3CNc3nc(NC[C@H]4CCN(C(C)C)C[C@@H]4O)nc4c(C(C)C)cnn34)nccc2c1 [Compound 168] | > 1000 nM | > 1000 nM | > 1000 nM | < 100 nM | B (B indicates 50 < [fold] ≤ 500) | B (B indicates 50 < [fold] ≤ 500) | B (B indicates 50 < [fold] ≤ 500) | < 1000 nM | < 1000 nM |
| C=C(F)C(=O)Nc1ccc2c(-c3ccccc3CNc3nc(N[C@H]4CCC(C)(C)NC4)nc4c(C(C)C)cnn34)nccc2c1 [Compound 171] | > 1000 nM | > 1000 nM | > 1000 nM | < 100 nM | A (A indicates [fold] > 500) | A (A indicates [fold] > 500) | A (A indicates [fold] > 500) | < 1000 nM | < 1000 nM |
| C=C(F)C(=O)Nc1ccc2c(-c3ccccc3CNc3nc(NC[C@@H]4CCNC[C@H]4O)nc4c(C(C)C)cnn34)nccc2c1 [Compound 157] | > 1000 nM | > 1000 nM | > 1000 nM | < 100 nM | B (B indicates 50 < [fold] ≤ 500) | B (B indicates 50 < [fold] ≤ 500) | B (B indicates 50 < [fold] ≤ 500) | < 1000 nM | 1000 to 10000 nM |
| C=CC(=O)Nc1ccc2c(-c3ccccc3CNc3nc(NC[C@H]4CNC[C@@H]4O)nc4c(C(C)C)cnn34)nccc2c1 [Compound 111] | > 1000 nM | > 1000 nM | > 1000 nM | < 100 nM | A (A indicates [fold] > 500) | A (A indicates [fold] > 500) | A (A indicates [fold] > 500) | < 1000 nM | < 1000 nM |
| C=C(F)C(=O)Nc1ccc2c(-c3ccccc3CNc3nc(N[C@@H]4CCCNC4)nc4c(C(C)C)cnn34)nccc2c1 [Compound 166] | > 1000 nM | > 1000 nM | > 1000 nM | < 100 nM | A (A indicates [fold] > 500) | A (A indicates [fold] > 500) | A (A indicates [fold] > 500) | < 1000 nM | > 10000 nM |
| COC1CC2CCC(C1)N2c1cc(NCc2ccccc2-c2nccc3cc(NC(=O)/C=C/CN(C)C)ccc23)n2ncc(C(C)C)c2n1 (stereo not drawn) [Compound 125] | > 1000 nM | > 1000 nM | > 1000 nM | 100 to 1000 nM | B (B indicates 50 < [fold] ≤ 500) | B (B indicates 50 < [fold] ≤ 500) | B (B indicates 50 < [fold] ≤ 500) | < 1000 nM | < 1000 nM |
| C=CC(=O)Nc1ccc2c(-c3ccccc3CNc3nc(Oc4cccnc4)nc4c(C(C)C)cnn34)nccc2c1 [Compound 182] | > 1000 nM | > 1000 nM | > 1000 nM | 100 to 1000 nM | B (B indicates 50 < [fold] ≤ 500) | B (B indicates 50 < [fold] ≤ 500) | B (B indicates 50 < [fold] ≤ 500) | < 1000 nM | 1000 to 10000 nM |
| C=C(F)C(=O)Nc1ccc2c(-c3ccccc3CNc3nc(N4CCc5ncccc5C4)nc4c(C(C)C)cnn34)nccc2c1 [Compound 170] | > 1000 nM | > 1000 nM | > 1000 nM | 100 to 1000 nM | B (B indicates 50 < [fold] ≤ 500) | B (B indicates 50 < [fold] ≤ 500) | B (B indicates 50 < [fold] ≤ 500) | < 1000 nM | 1000 to 10000 nM |
| CC(C)c1cnn2c(NCc3ccccc3-c3nccc4cc(NC(=O)/C=C/CN(C)C)ccc34)nc(N3CCCC4(CC3)OCCO4)nc12 [Compound 115] | > 1000 nM | > 1000 nM | > 1000 nM | 100 to 1000 nM | B (B indicates 50 < [fold] ≤ 500) | B (B indicates 50 < [fold] ≤ 500) | B (B indicates 50 < [fold] ≤ 500) | < 1000 nM | 1000 to 10000 nM |
| C=C(F)C(=O)Nc1ccc2c(-c3ccccc3CNc3nc(NC[C@H]4CCN(CC)C[C@@H]4O)nc4c(C(C)C)cnn34)nccc2c1 [Compound 169] | > 1000 nM | > 1000 nM | > 1000 nM | < 100 nM | B (B indicates 50 < [fold] ≤ 500) | B (B indicates 50 < [fold] ≤ 500) | B (B indicates 50 < [fold] ≤ 500) | < 1000 nM | < 1000 nM |
| C=C(F)C(=O)Nc1ccc2c(-c3ccccc3CNc3nc(N4CCCC(OC)CC4)nc4c(C(C)C)cnn34)nccc2c1 (stereo not drawn) [Compound 100] | > 1000 nM | > 1000 nM | > 1000 nM | > 1000 nM | C (C indicates [fold] ≤ 50) | C (C indicates [fold] ≤ 50) | C (C indicates [fold] ≤ 50) | 1000 to 10000 nM | 1000 to 10000 nM |
| C=C(F)C(=O)Nc1ccc2c(-c3ccccc3CNc3nc(NC4CCCNC4)nc4c(C(C)C)cnn34)nccc2c1 (stereo not drawn) [Compound 172] | > 1000 nM | > 1000 nM | > 1000 nM | < 100 nM | A (A indicates [fold] > 500) | A (A indicates [fold] > 500) | A (A indicates [fold] > 500) | < 1000 nM | < 1000 nM |
| Cc1cc(NCc2ccccc2-c2nccc3cc(NC(=O)/C=C/CN(C)C)ccc23)n2ncc(C(C)C)c2n1 [Compound 153] | > 1000 nM | > 1000 nM | > 1000 nM | < 100 nM | A (A indicates [fold] > 500) | A (A indicates [fold] > 500) | A (A indicates [fold] > 500) | < 1000 nM | < 1000 nM |
| Cc1nc(NCc2ccccc2-c2nccc3cc(NC(=O)/C=C/CN(C)C)ccc23)n2ncc(C(C)C)c2n1 [Compound 167] | > 1000 nM | > 1000 nM | > 1000 nM | 100 to 1000 nM | B (B indicates 50 < [fold] ≤ 500) | B (B indicates 50 < [fold] ≤ 500) | B (B indicates 50 < [fold] ≤ 500) | < 1000 nM | < 1000 nM |
| CC(C)c1cnn2c(NCc3ccccc3-c3nccc4cc(NC(=O)/C=C/CN(C)C)ccc34)nc(N3CCC4(CCN(C)C4)CC3)nc12 [Compound 121] | > 1000 nM | > 1000 nM | > 1000 nM | < 100 nM | B (B indicates 50 < [fold] ≤ 500) | B (B indicates 50 < [fold] ≤ 500) | B (B indicates 50 < [fold] ≤ 500) | < 1000 nM | < 1000 nM |
